Experimental data from patent publication US9340590B2 (priority 2011, dated 2016).
Where two headings read alike, the source gives them in different places. Positions of bridges follow the written chain, without caps; N, C: chain ends. Non-standard residues stand in square brackets, D forms with d. Residues, ends and D or L forms follow the SMILES beside them. Phe(4-COOH) = N[C@@H](Cc1ccc(C(=O)O)cc1)C(=O)O; Arg(Me2s) = CN=C(NC)NCCC[C@H](N)C(=O)O; 2Pal = N[C@@H](Cc1ccccn1)C(=O)O

Legend:
Assay in all cases: cell-based
hNav1.5 = hNav1.5 (Homo sapiens, UniProt Q14524)
hNav1.3 = hNav1.3 (Homo sapiens, UniProt Q9NY46); settings: IonWorks Quattro, Use; read-out: IWQ Use Nav1.3
hNav1.7 = hNav1.7 (Homo sapiens, UniProt Q15858); format: cell-based; settings: read-out: IWQ Use Nav1.7
[1] = IonWorks Quattro, Use, read-out: IWQ Use Nav1.5

Chain of hNav1.7 (Q15858 whole entry, looked up): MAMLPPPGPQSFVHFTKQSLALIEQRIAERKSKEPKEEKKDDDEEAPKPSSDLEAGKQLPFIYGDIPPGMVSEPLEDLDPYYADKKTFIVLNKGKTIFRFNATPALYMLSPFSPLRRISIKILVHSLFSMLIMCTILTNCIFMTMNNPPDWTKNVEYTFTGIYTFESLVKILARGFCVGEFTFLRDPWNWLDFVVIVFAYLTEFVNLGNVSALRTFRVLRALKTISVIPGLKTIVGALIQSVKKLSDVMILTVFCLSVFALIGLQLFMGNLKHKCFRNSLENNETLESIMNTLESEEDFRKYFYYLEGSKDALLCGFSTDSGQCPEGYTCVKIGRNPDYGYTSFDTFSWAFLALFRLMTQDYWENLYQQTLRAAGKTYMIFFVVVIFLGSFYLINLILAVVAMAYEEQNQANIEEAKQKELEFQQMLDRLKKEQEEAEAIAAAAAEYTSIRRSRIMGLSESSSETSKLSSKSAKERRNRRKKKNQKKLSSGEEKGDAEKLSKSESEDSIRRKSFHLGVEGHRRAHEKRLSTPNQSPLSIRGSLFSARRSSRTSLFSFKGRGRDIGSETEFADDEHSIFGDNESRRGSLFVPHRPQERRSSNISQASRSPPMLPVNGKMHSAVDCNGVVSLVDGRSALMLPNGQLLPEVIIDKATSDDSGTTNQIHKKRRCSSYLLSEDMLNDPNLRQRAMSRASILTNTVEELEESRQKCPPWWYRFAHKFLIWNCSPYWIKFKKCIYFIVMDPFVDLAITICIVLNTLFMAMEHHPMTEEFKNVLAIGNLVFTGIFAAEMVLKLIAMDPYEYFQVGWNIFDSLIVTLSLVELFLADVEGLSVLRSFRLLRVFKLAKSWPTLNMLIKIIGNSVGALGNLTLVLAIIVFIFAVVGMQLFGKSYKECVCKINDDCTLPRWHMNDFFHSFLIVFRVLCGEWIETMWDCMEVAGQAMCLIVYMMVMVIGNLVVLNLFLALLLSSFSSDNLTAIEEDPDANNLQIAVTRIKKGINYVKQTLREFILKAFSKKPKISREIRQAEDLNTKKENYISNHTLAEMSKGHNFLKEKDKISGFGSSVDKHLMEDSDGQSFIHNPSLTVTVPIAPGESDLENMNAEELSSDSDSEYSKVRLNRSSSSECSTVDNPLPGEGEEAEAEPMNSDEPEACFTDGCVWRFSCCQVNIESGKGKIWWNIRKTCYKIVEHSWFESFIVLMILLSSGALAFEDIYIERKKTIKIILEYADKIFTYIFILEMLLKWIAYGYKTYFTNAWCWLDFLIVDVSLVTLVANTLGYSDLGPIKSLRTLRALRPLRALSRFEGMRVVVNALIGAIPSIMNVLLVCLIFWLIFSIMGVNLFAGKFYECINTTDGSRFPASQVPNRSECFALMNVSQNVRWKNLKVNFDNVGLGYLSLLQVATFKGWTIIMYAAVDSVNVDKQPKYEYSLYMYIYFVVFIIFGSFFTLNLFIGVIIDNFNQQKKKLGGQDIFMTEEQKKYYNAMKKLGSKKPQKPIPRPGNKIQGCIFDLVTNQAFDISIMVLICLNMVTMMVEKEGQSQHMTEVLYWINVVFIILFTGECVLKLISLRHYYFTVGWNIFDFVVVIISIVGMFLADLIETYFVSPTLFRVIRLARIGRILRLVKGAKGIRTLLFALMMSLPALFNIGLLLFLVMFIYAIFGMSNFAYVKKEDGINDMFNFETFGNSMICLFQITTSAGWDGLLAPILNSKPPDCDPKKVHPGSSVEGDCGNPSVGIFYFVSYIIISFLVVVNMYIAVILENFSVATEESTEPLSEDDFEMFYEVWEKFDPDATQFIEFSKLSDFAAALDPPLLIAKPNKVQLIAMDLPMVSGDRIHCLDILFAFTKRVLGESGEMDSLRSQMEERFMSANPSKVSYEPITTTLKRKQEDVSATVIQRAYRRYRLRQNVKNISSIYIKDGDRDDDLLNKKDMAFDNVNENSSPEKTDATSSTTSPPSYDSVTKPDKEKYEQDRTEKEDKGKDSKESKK
Chain of hNav1.3 (Q9NY46 whole entry, looked up): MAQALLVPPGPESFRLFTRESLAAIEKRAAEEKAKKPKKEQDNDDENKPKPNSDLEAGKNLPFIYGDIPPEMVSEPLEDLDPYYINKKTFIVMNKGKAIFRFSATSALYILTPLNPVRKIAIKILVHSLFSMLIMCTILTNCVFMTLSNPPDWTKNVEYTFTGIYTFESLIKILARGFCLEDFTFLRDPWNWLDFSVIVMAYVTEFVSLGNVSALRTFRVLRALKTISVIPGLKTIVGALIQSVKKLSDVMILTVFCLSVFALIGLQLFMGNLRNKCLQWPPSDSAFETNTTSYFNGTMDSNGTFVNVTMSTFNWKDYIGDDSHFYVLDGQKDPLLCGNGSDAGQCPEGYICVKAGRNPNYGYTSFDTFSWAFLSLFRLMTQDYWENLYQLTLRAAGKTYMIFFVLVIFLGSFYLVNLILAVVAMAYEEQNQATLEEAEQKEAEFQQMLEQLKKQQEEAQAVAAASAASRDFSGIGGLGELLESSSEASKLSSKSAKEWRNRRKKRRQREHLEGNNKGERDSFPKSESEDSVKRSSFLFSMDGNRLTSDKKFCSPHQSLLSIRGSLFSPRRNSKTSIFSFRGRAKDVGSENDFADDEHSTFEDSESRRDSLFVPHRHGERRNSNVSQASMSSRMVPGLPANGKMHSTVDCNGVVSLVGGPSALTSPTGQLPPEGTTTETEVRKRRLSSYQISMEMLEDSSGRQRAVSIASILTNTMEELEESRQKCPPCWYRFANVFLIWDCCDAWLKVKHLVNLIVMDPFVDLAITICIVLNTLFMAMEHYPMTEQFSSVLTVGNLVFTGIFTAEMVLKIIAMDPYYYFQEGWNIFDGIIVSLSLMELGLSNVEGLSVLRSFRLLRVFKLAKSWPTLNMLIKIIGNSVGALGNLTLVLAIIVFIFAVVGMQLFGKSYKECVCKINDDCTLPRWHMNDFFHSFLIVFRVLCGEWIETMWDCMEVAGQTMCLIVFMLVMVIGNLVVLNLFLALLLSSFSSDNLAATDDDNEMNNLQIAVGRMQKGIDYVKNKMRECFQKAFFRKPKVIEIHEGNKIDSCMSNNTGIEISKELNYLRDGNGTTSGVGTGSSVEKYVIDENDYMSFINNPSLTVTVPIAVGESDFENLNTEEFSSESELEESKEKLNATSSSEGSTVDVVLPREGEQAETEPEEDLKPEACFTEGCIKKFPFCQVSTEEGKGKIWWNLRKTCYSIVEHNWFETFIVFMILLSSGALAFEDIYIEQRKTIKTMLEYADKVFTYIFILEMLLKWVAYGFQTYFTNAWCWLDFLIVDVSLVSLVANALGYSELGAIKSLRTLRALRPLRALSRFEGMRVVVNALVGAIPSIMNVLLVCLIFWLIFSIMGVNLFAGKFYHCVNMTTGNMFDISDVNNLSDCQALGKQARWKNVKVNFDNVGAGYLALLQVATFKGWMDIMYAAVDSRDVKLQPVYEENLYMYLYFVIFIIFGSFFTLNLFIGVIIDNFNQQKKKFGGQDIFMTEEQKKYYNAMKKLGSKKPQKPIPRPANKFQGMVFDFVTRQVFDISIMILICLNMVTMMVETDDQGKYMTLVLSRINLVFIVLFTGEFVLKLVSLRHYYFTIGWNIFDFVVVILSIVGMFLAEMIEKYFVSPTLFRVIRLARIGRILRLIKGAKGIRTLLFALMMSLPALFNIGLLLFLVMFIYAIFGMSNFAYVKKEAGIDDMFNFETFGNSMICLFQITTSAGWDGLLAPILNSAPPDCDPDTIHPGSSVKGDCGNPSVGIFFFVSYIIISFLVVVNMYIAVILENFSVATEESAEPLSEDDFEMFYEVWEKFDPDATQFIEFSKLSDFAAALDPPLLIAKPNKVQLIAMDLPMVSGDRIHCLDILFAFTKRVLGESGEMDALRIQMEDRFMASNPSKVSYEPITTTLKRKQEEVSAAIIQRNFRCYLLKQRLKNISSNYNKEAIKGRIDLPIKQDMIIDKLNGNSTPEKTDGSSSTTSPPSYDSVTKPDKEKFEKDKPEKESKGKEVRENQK

SMILES | IC50 (hNav1.5; [1]) [µM] | IC50 (hNav1.3) [nM] | IC50 (hNav1.7; IonWorks Quattro, Use) [nM] | IC50 (hNav1.5; IWQ Use Nav1.5 (μM)) [µM] | IC50 (hNav1.7) [nM]
CC[C@H](C)[C@@H]1NC(=O)[C@@H]2CSSC[C@@H]3NC(=O)[C@H](C(C)C)NC(=O)[C@H](CC(C)C)NC(=O)[C@H](CC(N)=O)NC(=O)[C@@H]4CCCN4C(=O)[C@H](CCCNC(=N)N)NC(=O)[C@H](CSSC[C@H](NC(=O)[C@@H](N)CC(=O)O)C(=O)N[C@@H](CC(C)C)C(=O)NCC(=O)N[C@@H](Cc4ccccc4)C(=O)N[C@@H](CCSC)C(=O)N[C@@H](CCCNC(=N)N)C(=O)N[C@@H](CCCCN)C(=O)N2)NC(=O)[C@H](CSSC[C@@H](C(=O)N[C@@H](CCCCN)C(=O)N[C@@H](Cc2ccc(O)cc2)C(=O)N[C@H](C(=O)N[C@@H](Cc2ccccc2)C(N)=O)C(C)C)NC(=O)[C@H](Cc2c[nH]c4ccccc24)NC(=O)[C@H](CCCCN)NC(=O)[C@H](Cc2c[nH]cn2)NC(=O)[C@H]([C@@H](C)O)NC(=O)[C@H](CCCNC(=N)N)NC(=O)[C@H](CO)NC3=O)NC(=O)[C@H](CCCNC(=NC)NC)NC(=O)[C@H](CC(=O)O)NC(=O)[C@H](CC(N)=O)NC(=O)[C@H](CC(=O)O)NC(=O)[C@@H]2CCCN2C1=O [compound 312] (H-DCLGFMRKCIPDND[Arg(Me2s)]CCRPNLVCSRTHKWCKYVF-NH2; disulfide 2-17, 9-23, 16-30) | 9.67 | 150 | 140 |  | 
CC[C@H](C)[C@@H]1NC(=O)[C@@H]2CSSC[C@@H]3NC(=O)[C@H](C(C)C)NC(=O)[C@H](CC(C)C)NC(=O)[C@H](CC(N)=O)NC(=O)[C@@H]4CCCN4C(=O)[C@H](CCCNC(=N)N)NC(=O)[C@H](CSSC[C@H](NC(=O)[C@@H](N)CC(=O)O)C(=O)N[C@@H](CC(C)C)C(=O)NCC(=O)N[C@@H](Cc4ccccc4)C(=O)N[C@@H](CCSC)C(=O)N[C@@H](CCCNC(=N)N)C(=O)N[C@@H](CCCCN)C(=O)N2)NC(=O)[C@H](CSSC[C@@H](C(=O)N[C@@H](CCCCN)C(=O)N[C@@H](Cc2ccc(O)cc2)C(=O)N[C@H](C(=O)N[C@@H](Cc2ccccc2)C(N)=O)C(C)C)NC(=O)[C@H](Cc2c[nH]c4ccccc24)NC(=O)[C@H](CCCCN)NC(=O)[C@H](Cc2c[nH]cn2)NC(=O)[C@H]([C@@H](C)O)NC(=O)[C@H](CCCNC(=N)N)NC(=O)[C@H](CO)NC3=O)NC(=O)[C@H](CCCCN(C)C)NC(=O)[C@H](CC(=O)O)NC(=O)[C@H](CC(N)=O)NC(=O)[C@H](CC(=O)O)NC(=O)[C@@H]2CCCN2C1=O [compound 313] |  | 130 | 190 | 10.1 | 
CC[C@H](C)[C@@H]1NC(=O)[C@@H]2CSSC[C@@H]3NC(=O)[C@H](C(C)C)NC(=O)[C@H](CC(C)C)NC(=O)[C@H](CC(N)=O)NC(=O)[C@@H]4CCCN4C(=O)[C@H](CCCNC(=NC)NC)NC(=O)[C@H](CSSC[C@H](NC(=O)[C@@H](N)CC(=O)O)C(=O)N[C@@H](CC(C)C)C(=O)NCC(=O)N[C@@H](Cc4ccccc4)C(=O)N[C@@H](CCSC)C(=O)N[C@@H](CCCNC(=N)N)C(=O)N[C@@H](CCCCN)C(=O)N2)NC(=O)[C@H](CSSC[C@@H](C(=O)N[C@@H](CCCCN)C(=O)N[C@@H](Cc2ccc(O)cc2)C(=O)N[C@H](C(=O)N[C@@H](Cc2ccccc2)C(N)=O)C(C)C)NC(=O)[C@H](Cc2c[nH]c4ccccc24)NC(=O)[C@H](CCCCN)NC(=O)[C@H](Cc2c[nH]cn2)NC(=O)[C@H]([C@@H](C)O)NC(=O)[C@H](CCCNC(=N)N)NC(=O)[C@H](CO)NC3=O)NC(=O)[C@H](CCCCN)NC(=O)[C@H](CC(=O)O)NC(=O)[C@H](CC(N)=O)NC(=O)[C@H](CC(=O)O)NC(=O)[C@@H]2CCCN2C1=O [compound 315] |  | 100 |  | 10.5 | 140
CC[C@H](C)[C@@H]1NC(=O)[C@@H]2CSSC[C@@H]3NC(=O)[C@H](C(C)C)NC(=O)[C@H](CC(C)C)NC(=O)[C@H](CC(N)=O)NC(=O)[C@@H]4CCCN4C(=O)[C@H](Cc4ccccn4)NC(=O)[C@H](CSSC[C@H](NC(=O)[C@@H](N)CC(=O)O)C(=O)N[C@@H](CC(C)C)C(=O)NCC(=O)N[C@@H](Cc4ccccc4)C(=O)N[C@@H](CCSC)C(=O)N[C@@H](CCCNC(=N)N)C(=O)N[C@@H](CCCCN)C(=O)N2)NC(=O)[C@H](CSSC[C@@H](C(=O)N[C@@H](CCCCN)C(=O)N[C@@H](Cc2ccc(O)cc2)C(=O)N[C@H](C(=O)N[C@@H](Cc2ccccc2)C(N)=O)C(C)C)NC(=O)[C@H](Cc2c[nH]c4ccccc24)NC(=O)[C@H](CCCCN)NC(=O)[C@H](Cc2cnc[nH]2)NC(=O)[C@H]([C@@H](C)O)NC(=O)[C@H](CCCNC(=N)N)NC(=O)[C@H](CO)NC3=O)NC(=O)[C@H](CCCCN)NC(=O)[C@H](CC(=O)O)NC(=O)[C@H](CC(N)=O)NC(=O)[C@H](CC(=O)O)NC(=O)[C@@H]2CCCN2C1=O [compound 316] (H-DCLGFMRKCIPDNDKCC[2Pal]PNLVCSRTHKWCKYVF-NH2; disulfide 2-17, 9-23, 16-30) | 9.17 | 60 | 190 |  | 
CC[C@H](C)[C@@H]1NC(=O)[C@@H]2CSSC[C@@H]3NC(=O)[C@H](C(C)C)NC(=O)[C@H](Cc4ccc(C(=O)O)cc4)NC(=O)[C@H](CC(N)=O)NC(=O)[C@@H]4CCCN4C(=O)[C@H](CCCNC(=N)N)NC(=O)[C@H](CSSC[C@H](NC(=O)[C@@H](N)CC(=O)O)C(=O)N[C@@H](CC(C)C)C(=O)NCC(=O)N[C@@H](Cc4ccccc4)C(=O)N[C@@H](CCSC)C(=O)N[C@@H](CCCNC(=N)N)C(=O)N[C@@H](CCCCN)C(=O)N2)NC(=O)[C@H](CSSC[C@@H](C(=O)N[C@@H](CCCCN)C(=O)N[C@@H](Cc2ccc(O)cc2)C(=O)N[C@H](C(=O)N[C@@H](Cc2ccccc2)C(N)=O)C(C)C)NC(=O)[C@H](Cc2c[nH]c4ccccc24)NC(=O)[C@H](CCCCN)NC(=O)[C@H](Cc2c[nH]cn2)NC(=O)[C@H]([C@@H](C)O)NC(=O)[C@H](CCCNC(=N)N)NC(=O)[C@H](CO)NC3=O)NC(=O)[C@H](CCCCN)NC(=O)[C@H](CC(=O)O)NC(=O)[C@H](CC(N)=O)NC(=O)[C@H](CC(=O)O)NC(=O)[C@@H]2CCCN2C1=O [compound 317] (H-DCLGFMRKCIPDNDKCCRPN[Phe(4-COOH)]VCSRTHKWCKYVF-NH2; disulfide 2-17, 9-23, 16-30) | 8.9 | 3670 | 3980 |  | 
CC[C@H](C)[C@@H]1NC(=O)[C@@H]2CSSC[C@@H]3NC(=O)[C@H](C(C)C)NC(=O)[C@H](Cc4ccccn4)NC(=O)[C@H](CC(N)=O)NC(=O)[C@@H]4CCCN4C(=O)[C@H](CCCNC(=N)N)NC(=O)[C@H](CSSC[C@H](NC(=O)[C@@H](N)CC(=O)O)C(=O)N[C@@H](CC(C)C)C(=O)NCC(=O)N[C@@H](Cc4ccccc4)C(=O)N[C@@H](CCSC)C(=O)N[C@@H](CCCNC(=N)N)C(=O)N[C@@H](CCCCN)C(=O)N2)NC(=O)[C@H](CSSC[C@@H](C(=O)N[C@@H](CCCCN)C(=O)N[C@@H](Cc2ccc(O)cc2)C(=O)N[C@H](C(=O)N[C@@H](Cc2ccccc2)C(N)=O)C(C)C)NC(=O)[C@H](Cc2c[nH]c4ccccc24)NC(=O)[C@H](CCCCN)NC(=O)[C@H](Cc2c[nH]cn2)NC(=O)[C@H]([C@@H](C)O)NC(=O)[C@H](CCCNC(=N)N)NC(=O)[C@H](CO)NC3=O)NC(=O)[C@H](CCCCN)NC(=O)[C@H](CC(=O)O)NC(=O)[C@H](CC(N)=O)NC(=O)[C@H](CC(=O)O)NC(=O)[C@@H]2CCCN2C1=O [compound 318] (H-DCLGFMRKCIPDNDKCCRPN[2Pal]VCSRTHKWCKYVF-NH2; disulfide 2-17, 9-23, 16-30) | 7.52 | 80 | 180 |  | 
